Reference: patent US5623050A, “Stable polypeptides having c-AMP production enhancing activity and the use thereof” (Takeda Chemical Industries, Ltd., priority 1991, dated 1997)

Assay: Oxidized product content by HPLC on storage
Format: physicochemical
Protocol: In order to clarify that the polypeptides of the present invention are not easily oxidized, oxidized product content (%) of Arg^17 -PACAP27 obtained in Example 1 below were assayed when stored both in lyophylization and in aqueous acetic acid. The assay of the oxidized product content (%) were conducted on High Performance Liquid Chromatography (HPLC). Conditions of HPLC are as follows:
Solution A 0.1% aqueous trifluoroacetic acid
Solution B acetonitrile containing 0.1% trifluoroacetic acid
A linear gradient elution from solution A to solution
Elution time of Arg^17 -PACAP27:19.9 min

Oxidized product (%) just after synthesizing (just after synthesizing): 0% | Oxidized product (%) aqueous acetic acid (stored in aqueous acetic acid): 0% | Oxidized product (%) lyophilization store (stored in lyophilization): 0%
Compound: CC[C@H](C)[C@H](NC(=O)CNC(=O)[C@H](CC(=O)O)NC(=O)[C@H](CO)NC(=O)[C@@H](N)Cc1c[nH]cn1)C(=O)N[C@@H](Cc1ccccc1)C(=O)N[C@H](C(=O)N[C@@H](CC(=O)O)C(=O)N[C@@H](CO)C(=O)N[C@@H](Cc1ccc(O)cc1)C(=O)N[C@@H](CO)C(=O)N[C@@H](CCCNC(=N)N)C(=O)N[C@@H](Cc1ccc(O)cc1)C(=O)N[C@@H](CCCNC(=N)N)C(=O)N[C@@H](CCCCN)C(=O)N[C@@H](CCC(N)=O)C(=O)N[C@@H](CCCNC(=N)N)C(=O)N[C@@H](C)C(=O)N[C@H](C(=O)N[C@@H](CCCCN)C(=O)N[C@@H](CCCCN)C(=O)N[C@@H](Cc1ccc(O)cc1)C(=O)N[C@@H](CC(C)C)C(=O)N[C@@H](C)C(=O)N[C@@H](C)C(=O)N[C@H](C(=O)N[C@@H](CC(C)C)C(N)=O)C(C)C)C(C)C)[C@@H](C)O [Arg^17 -PACAP27]
